# Source: patent publication US20110086834A1, “ALKYNYL ALCOHOLS AS KINASE INHIBITORS” (AMGEN INC., priority 2008, published 2011)
# Molecular target: T1, NIK (Homo sapiens, UniProt Q99558)
# T1 construct: Both assays utilize a truncated form of NIK containing only the catalytic domain; made in house; host or cells: baculovirus expression system (insect cells implied)
# Experiment: homogenous time resolved fluorescence (HTRF) assay for NIK Ki measurement
# Format: biochemical
# Conditions: not given
# Protocol: Two formats of biochemical assays are implemented: (1) chemiluminescent (CL) assay for NIK IC50 determination; (2) homogenous time resolved fluorescence (HTRF) assay for NIK Ki measurement. […] The NIK proteins are purified with baculovirus expression system and further biotinylated with N-hydroxysuccinamide biotin ester (Sigma). […] The reaction mixtures are then immobilized on a Streptavidin-coated plate (Pierce). […] For the HTRF assay, 10 nM of enzyme are incubated with compounds in the presence of 20, 100, 200, or 500 μM of ATP in a buffer with 20 mM of Hepes pH7.5, 20 mM of MgCl2, 0.2% of Tween 20 and 1 mM of DTT at room temperature for 2 hours.
# T1 sequence (Q99558 400-655 limits assumed): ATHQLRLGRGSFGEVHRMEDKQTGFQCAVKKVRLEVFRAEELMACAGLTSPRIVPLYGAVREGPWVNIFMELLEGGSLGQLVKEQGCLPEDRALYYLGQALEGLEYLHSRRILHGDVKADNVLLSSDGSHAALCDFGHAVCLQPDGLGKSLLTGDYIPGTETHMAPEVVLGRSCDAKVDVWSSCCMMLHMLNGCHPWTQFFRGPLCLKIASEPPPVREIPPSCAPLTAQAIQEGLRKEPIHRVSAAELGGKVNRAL
row,Ki,SMILES
1,< 1 µM,"Cc1cnc(C(C)(O)C#Cc2ccc3c(c2)N(c2ccnc(N)n2)CC3)o1 (stereo not shown) [Example 316, 4-(1-(2-Amino-4-pyrimidinyl)-2,3-dihydro-1H-indol-6-yl)-2-(5-methyl-1,3-oxazol-2-yl)-3-Butyn-2-ol]"

# Same assay, conditions: truncated NIK (catalytic domain only), autophosphorylation; 10 nM enzyme; 20, 100, 200 or 500 μM ATP; room temperature, 2 hours; read-out: Ki activity in the homogenous time resolved fluorescence (HTRF) assay for NIK
row,Ki,SMILES
1,< 1 µM,"C[C@@](O)(C#Cc1ccc2c(c1)N(c1nc(N)ncc1Cl)CC21CS(=O)(=O)C1)c1nccs1 [Example 213, (2R)-4-(1-(2-Amino-5-chloro-4-pyrimidinyl)-1′,1′-dioxido-1,2-dihydrospiro[indole-3,3′-thietan]-6-yl)-2-(1,3-thiazol-2-yl)-3-butyn-2-ol]"
2,< 1 µM,"OC1(C#Cc2ccc3[nH]c4c(c3c2)-c2ncncc2CCC4)CCCC1 [Example 241, 1-(5,6,7,8-Tetrahydropyrimido[4′,′:3,4]cyclohepta[1,2-b]indol-11-ylethynyl)cyclopentanol]"
3,1 to 30 µM,"COCCN(C)c1ccc(C#C[C@](C)(O)c2nccs2)cc1Nc1nc(N)ncc1Cl [Example 153, (S)-4-(3-(2-Amino-5-chloropyrimidin-4-ylamino)-4-((2-methoxyethyl)(methyl)-amino)phenyl)-2-(thiazol-2-yl)but-3-yn-2-ol]"
4,< 1 µM,"C[C@@](O)(C#Cc1ccc(CN2CCOCC2)c(Nc2nc(N)ncc2Cl)c1)c1nccs1 [Example 163, (R)-4-(3-(2-Amino-5-chloropyrimidin-4-ylamino)-4-(morpholinomethyl)phenyl)-2-(thiazol-2-yl)but-3-yn-2-ol]"
5,< 1 µM,"Cn1c2c(c3cc(C#CC4(O)CCCC4)ccc31)-c1nc(N)ncc1CNC2=O [Example 245, 2-Amino-1′-((1-hydroxycyclopentyl)ethynyl)-8-methyl-5,8-dihydropyrimido[4′,5′:5,6]azepino[3,4-b]indol-7(6H)-one]"
6,< 1 µM,"C[C@@](O)(C#Cc1ccc2c(c1)N(c1nc(N)ncc1Cl)C[C@@]21CCOC1)c1nccs1 (relative stereo) [Example 200, (2R)-4-((3R*)-1′-(2-Amino-5-chloro-4-pyrimidinyl)-1′,2′,4,5-tetrahydrospiro[furan-3,3′-indol]-6′-yl)-2-(1,3-thiazol-2-yl)-3-butyn-2-ol]"
7,1 to 30 µM,"Nc1ncc(OCCN2CCOCC2)c(-c2c[nH]c3ccc(C#CC4(O)CCCC4)cc23)n1 [Example 230, 1-((3-(2-Amino-5-(2-(4-morpholinyl)ethoxy)-4-pyrimidinyl)-1H-indol-5-yl)ethynyl)cyclopentanol]"
8,< 1 µM,"CC(O)(C#Cc1ccc2c(c1)N(c1nc(N)ncc1Cl)CC2(C)C)c1ccccn1 (stereo not shown) [Example 304, 4-(1-(2-Amino-5-chloro-4-pyrimidinyl)-3,3-dimethyl-2,3-dihydro-1H-indol-6-yl)-2-(2-pyridinyl)-3-Butyn-2-ol]"
9,1 to 30 µM,"C[C@](O)(C#Cc1ccc2c(c1)N(c1nc(N)ncc1Cl)CC21CCOC1)c1nccs1 (single isomer, unassigned) [Example 201, (2S)-4-((3S*)-1′-(2-Amino-5-chloro-4-pyrimidinyl)-1′,2′,4,5-tetrahydrospiro[furan-3,3′-indol]-6′-yl)-2-(1,3-thiazol-2-yl)-3-butyn-2-ol]"
10,< 1 µM,"CC(O)(C#Cc1ccc2c(c1)N(c1ccncc1)CC2(C)C)c1ccccn1 (stereo not shown) [Example 310, 4-(3,3-Dimethyl-1-(4-pyridinyl)-2,3-dihydro-1H-indol-6-yl)-2-(2-pyridinyl)-3-butyn-2-ol]"
11,< 1 µM,"Nc1ncc2c(n1)-c1c([nH]c3ccc(C#CC4(O)CCCCC4)cc13)CCC2 [Example 239, 1-((2-Amino-5,6,7,8-tetrahydropyrimido[4′,′:3,4]cyclohepta[1,2-b]indol-11-yl)ethynyl)cyclohexanol]"
12,< 1 µM,"Cc1csc(C(C)(O)C#Cc2ccc3c(c2)N(c2ccnc(N)n2)CC3)c1 (stereo not shown) [Example 277, 4-(1-(2-amino-4-pyrimidinyl)-2,3-dihydro-1H-indol-6-yl)-2-(4-methyl-2-thienyl)-3-butyn-2-ol]"
13,< 1 µM,"COCCOc1ccc(C#C[C@@](C)(O)c2cc(C)on2)cc1Nc1nc(N)ncc1Cl (single isomer, unassigned) [Example 179]"
14,< 1 µM,"COCCN(C)c1ccc(C#C[C@@](C)(O)c2nccs2)cc1Nc1nc(N)ncc1Cl [Example 154, (R)-4-(3-(2-Amino-5-chloropyrimidin-4-ylamino)-4-((2-methoxyethyl)(methyl)amino)phenyl)-2-(thiazol-2-yl)but-3-yn-2-ol]"
15,< 1 µM,"CC(O)(C#Cc1ccc2ncc(-c3ccncn3)n2c1)c1nccs1 (stereo not shown) [Example 302, 4-(3-(4-pyrimidinyl)imidazo[1,2-a]pyridin-6-yl)-2-(1,3-thiazol-2-yl)-3-butyn-2-ol]"
16,< 1 µM,"Cc1cc([C@](C)(O)C#Cc2ccc3c(c2)N(c2nc(N)ncc2Cl)CC32CCOCC2)no1 (single isomer, unassigned) [Example 211]"
17,1 to 30 µM,"CN1CC2(C1)CN(c1nc(N)ncc1Cl)c1cc(C#CC(C)(O)c3nccs3)ccc12 (single isomer, unassigned) [Example 182a, (2S*)-4-(1′-(2-Amino-5-chloro-4-pyrimidinyl)-1-methyl-1′,2′-dihydrospiro[azetidine-3,3′-indol]-6′-yl)-2-(1,3-thiazol-2-yl)-3-Butyn-2-ol]"
18,< 1 µM,"COc1ccc(C#CC(C)(O)c2cc(C)no2)cc1Nc1nc(N)ncc1Cl (stereo not shown) [Example 144, 4-(3-((2-amino-5-chloro-4-pyrimidinyl)amino)-4-(methyloxy)phenyl)-2-(3-methyl-5-isoxazolyl)-3-butyn-2-ol]"
19,< 1 µM,"CC(O)(C#Cc1ccc2c(c1)N(c1ccnc(N)n1)CC2)c1ccco1 (stereo not shown) [Example 269, 4-(1-(2-Amino-4-pyrimidinyl)-2,3-dihydro-1H-indol-6-yl)-2-(2-furanyl)-3-butyn-2-ol]"

# Second part, the molecule before the results:
row,SMILES,Ki
1,"CN1CCC2(C=C(c3nc(N)ncc3Cl)c3cc(C#CC4(O)CCCC4)ccc32)CC1 [Example 222, 1-((3-(2-Amino-5-chloro-4-pyrimidinyl)-1′-methylspiro[indene-1,4′-piperidin]-5-yl)ethynyl)cyclopentanol]",< 1 µM
2,"COCCOCC1(C)CN(c2nc(N)nc3[nH]cnc23)c2cc(C#CC3(O)CCCC3)ccc21 (stereo not shown) [Example 73, 1-((1-(2-amino-9H-purin-6-yl)-3-((2-methoxyethoxy)methyl)-3-methyl-2,3-dihydro-1H-indol-6-yl)ethynyl)cyclopentanol]",< 1 µM
3,"CC(O)(C#Cc1ccc2c(c1)N(c1ncns1)CC2(C)C)c1cnccn1 (stereo not shown) [Example 13, 4-(3,3-dimethyl-1-(1,2,4-thiadiazol-5-yl)indolin-6-yl)-2-(pyrazin-2-yl)but-3-yn-2-ol]",< 1 µM
4,"CN1CCC2(CC1)CN(c1nc(N)nc3[nH]cnc13)c1cc(C#CC3(O)CCCC3)ccc12 [Example 187, 1-((1-(2-amino-9H-purin-6-yl)-1′-methylspiro[indoline-3,4′-piperidine]-6-yl)ethynyl)cyclopentanol]",< 1 µM
5,"Nc1ncc(Cl)c(-c2cn(C[C@@H]3CCCO3)c3ccc(C#CC4(O)CCCC4)cc23)n1 [Example 136, 1-(2-(3-(2-amino-5-chloropyrimidin-4-yl)-1-(((S)-tetrahydrofuran-2-yl)methyl)-1H-indol-5-yl)ethynyl)cyclopentanol]",< 1 µM
6,"Nc1ncc(Cl)c(-c2cn(CCN3CCOCC3)c3ccc(C#CC4(O)CCCCC4)cc23)n1 [Example 132, 1-(2-(3-(2-amino-5-chloropyrimidin-4-yl)-1-(2-morpholinoethyl)-1H-indol-5-yl)ethynyl)cyclohexanol]",< 1 µM
7,"CC(O)(C#Cc1ccc2[nH]cc(-c3cnco3)c2c1)c1nccs1 (stereo not shown) [Example 106, 4-(3-(oxazol-5-yl)-1H-indol-5-yl)-2-(thiazol-2-yl)but-3-yn-2-ol]",< 1 µM
8,"OC1(C#Cc2ccc3[nH]nc(-c4ccns4)c3c2)CCCC1 [Example 97, 1-(2-(3-(isothiazol-5-yl)-1H-indazol-5-yl)ethynyl)cyclopentanol]",< 1 µM
9,"Nc1ncc(F)c(N2CCc3ccc(C#CC4(O)CCCC4)cc32)n1 [Example 68, 1-((1-(2-amino-5-fluoro-4-pyrimidinyl)-2,3-dihydro-1H-indol-6-yl)ethynyl)cyclopentanol]",< 1 µM
10,"COCC1(C)CN(c2nc(N)nc3[nH]cnc23)c2cc(C#CC3(O)CCCC3)ccc21 (single isomer, unassigned) [Example 70, 1-(((3R*)-1-(2-amino-9H-purin-6-yl)-3-(methoxymethyl)-3-methyl-2,3-dihydro-1H-indol-6-yl)ethynyl)cyclopentanol]",< 1 µM
11,"Nc1ncc(F)c(-c2c[nH]c3ccc(C#CC4(O)CCCC4)cc23)n1 [Example 95, 1-(2-(3-(2-amino-5-fluoropyrimidin-4-yl)-1H-indol-5-yl)ethynyl)cyclopentanol]",< 1 µM
12,"CC(O)(C#Cc1ccc2c(c1)N(c1nc(N)ncc1Cl)CC2(C)CO)c1nccs1 (single isomer, unassigned) [Example 53, 4-((3 S*)-1-(2-amino-5-chloro-4-pyrimidinyl)-3-(hydroxymethyl)-3-methyl-2,3-dihydro-1H-indol-6-yl)-2-(1,3-thiazol-2-yl)-3-butyn-2-ol]",< 1 µM
13,"CN1CCOC2(C1)CN(c1nc(N)ncc1Cl)c1cc(C#C[C@@](C)(O)c3nccs3)ccc12 (stereo partly drawn) [Example 36, (2R)-4-[1-(2-amino-5-chloropyrimidin-4-yl)-4′-methyl-1,2-dihydrospiro[indole-3,2′-[1,4]oxazinan]-6-yl]-2-(1,3-thiazol-2-yl)but-3-yn-2-ol]",< 1 µM
14,"CC(O)(C#Cc1ccc2c(c1)N(c1nc(N)ncc1Cl)CC2)c1ncc(CO)s1 (stereo not shown) [Example 8, 4-(1-(2-amino-5-chloropyrimidin-4-yl)indolin-6-yl)-2-(5-(hydroxymethyl)thiazol-2-yl)but-3-yn-2-ol]",< 1 µM
